Tested on: K562 CRISPRi cells
Test: Perturb-seq pooled growth measurement (sgRNA counts, growth phenotype γ, relative activity)
Type: cell-based, human
Conditions: sequencing read counts; for Perturb-seq pooled growth sgRNA counts, d5: 5 days of growth (day seven after transduction); for Perturb-seq pooled growth sgRNA counts, d10: 10 days of growth (day twelve after transduction); for Perturb-seq pooled growth sgRNA counts, T0: T0 = day two after transduction
Summary of the method: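 CRISPRi K562 cells from the Perturb-seq transduced pool; 500,000-cell samples taken days two, seven and twelve post-transduction. sgRNA amplicons from genomic DNA sequenced; growth phenotypes from normalized sgRNA abundances at days seven and twelve versus day two. Relative activity assigned from day seven (five days' growth).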

Substance: RPS14_+_149829238.23-P1P2_04: sgRNA targeting RPS14, GAGGCCCGCGCGCGACAATC, SEQ ID NO: 48 (listed as DNA, chemistry not fully specified)
- Perturb-seq pooled growth sgRNA counts, d5: 9641
- Perturb-seq pooled growth sgRNA counts, d10: 12547
- Perturb-seq pooled growth sgRNA counts, T0: 9244

Substance: RPS14_+_149829238.23-P1P2_08: sgRNA targeting RPS14, GAGGCCCGGGCTCGACAATC, SEQ ID NO: 50 (listed as DNA, chemistry not fully specified)
- Perturb-seq pooled growth sgRNA counts, d5: 11681
- Perturb-seq pooled growth sgRNA counts, d10: 17976
- Perturb-seq pooled growth sgRNA counts, T0: 4488

Substance: RPS14_+_149829238.23-P1P2_13: sgRNA targeting RPS14, GAGGCCCGGGCGCGACAGTC, SEQ ID NO: 49 (listed as DNA, chemistry not fully specified)
- Perturb-seq pooled growth sgRNA counts, d5: 9567
- Perturb-seq pooled growth sgRNA counts, d10: 12082
- Perturb-seq pooled growth sgRNA counts, T0: 7137

Substance: RPS15_−_1438413.23-P1P2_00: sgRNA targeting RPS15, GACCAAAGCGATCTCTTCTG, SEQ ID NO: 60 (listed as DNA, chemistry not fully specified)
- Perturb-seq pooled growth sgRNA counts, d5: 2912
- Perturb-seq pooled growth sgRNA counts, d10: 3376
- Perturb-seq pooled growth sgRNA counts, T0: 6757

Substance: RPS15_−_1438413.23-P1P2_01: sgRNA targeting RPS15, GACCAAACCGATCTCTTCTG, SEQ ID NO: 64 (listed as DNA, chemistry not fully specified)
- Perturb-seq pooled growth sgRNA counts, d5: 23866
- Perturb-seq pooled growth sgRNA counts, d10: 39345
- Perturb-seq pooled growth sgRNA counts, T0: 9713

Substance: RPS15_−_1438413.23-P1P2_02: sgRNA targeting RPS15, GACCAAGGCGATCTCTTCTG, SEQ ID NO: 62 (listed as DNA, chemistry not fully specified)
- Perturb-seq pooled growth sgRNA counts, d5: 3113
- Perturb-seq pooled growth sgRNA counts, d10: 3548
- Perturb-seq pooled growth sgRNA counts, T0: 5051

Substance: RPS15_−_1438413.23-P1P2_07: sgRNA targeting RPS15, GACCAAAGCGGTCTCTTCTG, SEQ ID NO: 61 (listed as DNA, chemistry not fully specified)
- Perturb-seq pooled growth sgRNA counts, d5: 3595
- Perturb-seq pooled growth sgRNA counts, d10: 4631
- Perturb-seq pooled growth sgRNA counts, T0: 6337

Substance: RPS15_−_1438413.23-P1P2_12: sgRNA targeting RPS15, GACCAAAGCGATCTCTTGTG, SEQ ID NO: 63 (listed as DNA, chemistry not fully specified)
- Perturb-seq pooled growth sgRNA counts, d5: 12257
- Perturb-seq pooled growth sgRNA counts, d10: 19991
- Perturb-seq pooled growth sgRNA counts, T0: 4661

Substance: RPS18_+_33239917.23-P1P2_00: sgRNA targeting RPS18, GCTGCGATGCCGCTGGATCA, SEQ ID NO: 40 (listed as DNA, chemistry not fully specified)
- Perturb-seq pooled growth sgRNA counts, d5: 1556
- Perturb-seq pooled growth sgRNA counts, d10: 1535
- Perturb-seq pooled growth sgRNA counts, T0: 6212

Substance: RPS18_+_33239917.23-P1P2_01: sgRNA targeting RPS18, GCTGCAATGCCGCTGGATCA, SEQ ID NO: 41 (listed as DNA, chemistry not fully specified)
- Perturb-seq pooled growth sgRNA counts, d5: 2658
- Perturb-seq pooled growth sgRNA counts, d10: 2571
- Perturb-seq pooled growth sgRNA counts, T0: 5202

Substance: RPS18_+_33239917.23-P1P2_02: sgRNA targeting RPS18, GCTGGGATGCCGCTGGATCA, SEQ ID NO: 42 (listed as DNA, chemistry not fully specified)
- Perturb-seq pooled growth sgRNA counts, d5: 3404
- Perturb-seq pooled growth sgRNA counts, d10: 3757
- Perturb-seq pooled growth sgRNA counts, T0: 5486

Substance: RPS18_+_33239917.23-P1P2_04: sgRNA targeting RPS18, GCTGCGATCCCGCTGGATCA, SEQ ID NO: 44 (listed as DNA, chemistry not fully specified)
- Perturb-seq pooled growth sgRNA counts, d5: 9728
- Perturb-seq pooled growth sgRNA counts, d10: 13186
- Perturb-seq pooled growth sgRNA counts, T0: 5132

Substance: RPS18_+_33239917.23-P1P2_08: sgRNA targeting RPS18, GCTGCGATTCCGCTGGATCA, SEQ ID NO: 43 (listed as DNA, chemistry not fully specified)
- Perturb-seq pooled growth sgRNA counts, d5: 11101
- Perturb-seq pooled growth sgRNA counts, d10: 13839
- Perturb-seq pooled growth sgRNA counts, T0: 8535

Substance: SEC61A1_−_127771295.23-P1_00: sgRNA targeting SEC61A1, GGCACTGACGTGTCTCTCGG, SEQ ID NO: 83 (listed as DNA, chemistry not fully specified)
- Perturb-seq pooled growth sgRNA counts, d5: 2151
- Perturb-seq pooled growth sgRNA counts, d10: 2025
- Perturb-seq pooled growth sgRNA counts, T0: 11429

Substance: SEC61A1_−_127771295.23-P1_01: sgRNA targeting SEC61A1, GGCACTGTCGTGTCTCTCGG, SEQ ID NO: 85 (listed as DNA, chemistry not fully specified)
- Perturb-seq pooled growth sgRNA counts, d5: 4006
- Perturb-seq pooled growth sgRNA counts, d10: 4229
- Perturb-seq pooled growth sgRNA counts, T0: 5308

Substance: SEC61A1_−_127771295.23-P1_02: sgRNA targeting SEC61A1, GGCGCTGACGTGTCTCTCGG, SEQ ID NO: 84 (listed as DNA, chemistry not fully specified)
- Perturb-seq pooled growth sgRNA counts, d5: 4030
- Perturb-seq pooled growth sgRNA counts, d10: 4238
- Perturb-seq pooled growth sgRNA counts, T0: 9991

Substance: SEC61A1_−_127771295.23-P1_03: sgRNA targeting SEC61A1, GGTACTGACGTGTCTCTCGG, SEQ ID NO: 86 (listed as DNA, chemistry not fully specified)
- Perturb-seq pooled growth sgRNA counts, d5: 3530
- Perturb-seq pooled growth sgRNA counts, d10: 3563
- Perturb-seq pooled growth sgRNA counts, T0: 5904

Substance: SEC61A1_−_127771295.23-P1_04: sgRNA targeting SEC61A1, GGCACTGAAGTGTCTCTCGG, SEQ ID NO: 87 (listed as DNA, chemistry not fully specified)
- Perturb-seq pooled growth sgRNA counts, d5: 7999
- Perturb-seq pooled growth sgRNA counts, d10: 10772
- Perturb-seq pooled growth sgRNA counts, T0: 5081

Substance: TUBB_+_30688126.23-P1_00: sgRNA targeting TUBB, GCGGCAGGAAGGTTCTGAGA, SEQ ID NO: 23 (listed as DNA, chemistry not fully specified)
- Perturb-seq pooled growth sgRNA counts, d5: 2722
- Perturb-seq pooled growth sgRNA counts, d10: 1125
- Perturb-seq pooled growth sgRNA counts, T0: 13570

Substance: TUBB_+_30688126.23-P1_01: sgRNA targeting TUBB, GCAGCAGGAAGGTTCTGAGA, SEQ ID NO: 106 (listed as DNA, chemistry not fully specified)
- Perturb-seq pooled growth sgRNA counts, d5: 1319
- Perturb-seq pooled growth sgRNA counts, d10: 962
- Perturb-seq pooled growth sgRNA counts, T0: 7125

Substance: TUBB_+_30688126.23-P1_03: sgRNA targeting TUBB, GCGGCAGCAAGGTTCTGAGA, SEQ ID NO: 108 (listed as DNA, chemistry not fully specified)
- Perturb-seq pooled growth sgRNA counts, d5: 1680
- Perturb-seq pooled growth sgRNA counts, d10: 1221
- Perturb-seq pooled growth sgRNA counts, T0: 4751

Substance: TUBB_+_30688126.23-P1_06: sgRNA targeting TUBB, GCGGCAGGACGGTTCTGAGA, SEQ ID NO: 107 (listed as DNA, chemistry not fully specified)
- Perturb-seq pooled growth sgRNA counts, d5: 1983
- Perturb-seq pooled growth sgRNA counts, d10: 1158
- Perturb-seq pooled growth sgRNA counts, T0: 6235

Substance: TUBB_+_30688126.23-P1_10: sgRNA targeting TUBB, GCGGCAGGAAGGTTCAGAGA, SEQ ID NO: 109 (listed as DNA, chemistry not fully specified)
- Perturb-seq pooled growth sgRNA counts, d5: 9877
- Perturb-seq pooled growth sgRNA counts, d10: 12737
- Perturb-seq pooled growth sgRNA counts, T0: 7085

Substance: non-targeting_00001: non-targeting negative control sgRNA, GTGCACCCGGCTAGGACCGG, SEQ ID NO: 161 (listed as DNA, chemistry not fully specified) [reference compound]
- Perturb-seq pooled growth sgRNA counts, d5: 18946
- Perturb-seq pooled growth sgRNA counts, d10: 31944
- Perturb-seq pooled growth sgRNA counts, T0: 10415

Substance: non-targeting_00028: non-targeting negative control sgRNA, GGTGGCCTTTGCAATTGGCG, SEQ ID NO: 162 (listed as DNA, chemistry not fully specified) [reference compound]
- Perturb-seq pooled growth sgRNA counts, d5: 20289
- Perturb-seq pooled growth sgRNA counts, d10: 35652
- Perturb-seq pooled growth sgRNA counts, T0: 8871

Substance: non-targeting_00054: non-targeting negative control sgRNA, GGGCCTGGACGAGCCTAAAA, SEQ ID NO: 163 (listed as DNA, chemistry not fully specified) [reference compound]
- Perturb-seq pooled growth sgRNA counts, d5: 29818
- Perturb-seq pooled growth sgRNA counts, d10: 49855
- Perturb-seq pooled growth sgRNA counts, T0: 12360

Source: patent US20220259593A1, “CONTROL OF MAMMALIAN GENE DOSAGE USING CRISPR” (The Regents of the University of California, priority 2019, published 2022)
